Data reported in article PMC6691788, “Design and synthesis of phthalazine-based compounds as potent anticancer agents with potential antiangiogenic activity via VEGFR-2 inhibition” (Journal of Enzyme Inhibition and Medicinal Chemistry, 2019).

How the values were obtained:
[1] = test system: KM12; assay: NCI 60 cell panel SRB screen; type: cell-based; settings: Homo sapiens
[2] = test system: SNB-19; assay: NCI 60 cell panel SRB screen; type: cell-based; settings: Homo sapiens
[3] = test system: LOX IMVI; assay: NCI 60 cell panel SRB screen; type: cell-based; settings: Homo sapiens
[4] = test system: SK-MEL-5; assay: NCI 60 cell panel SRB screen; type: cell-based; settings: Homo sapiens
[5] = test system: OVCAR-3; assay: NCI 60 cell panel SRB screen; type: cell-based; settings: Homo sapiens
[6] = test system: OVCAR-8; assay: NCI 60 cell panel SRB screen; type: cell-based; settings: Homo sapiens
[7] = test system: RXF 393; assay: NCI 60 cell panel SRB screen; type: cell-based; settings: Homo sapiens
[8] = test system: TK-10; assay: NCI 60 cell panel SRB screen; type: cell-based, human
[9] = test system: PC-3; assay: NCI 60 cell panel SRB screen; type: cell-based; settings: Homo sapiens
[10] = test system: T-47D; assay: NCI 60 cell panel SRB screen; type: cell-based; settings: Homo sapiens, T47D
[11] = biological target: T1, VEGFR-2 tyrosine kinase (Homo sapiens, UniProt P35968); assay: In vitro VEGFR-2 tyrosine kinase assay (BPS Bioscience); type: biochemical; settings: read-out: VEGFR-2 % inhibition; 10 μM concentration
T1 construct: purchased BPS Bioscience 40301
T1 sequence (P35968 20-1356): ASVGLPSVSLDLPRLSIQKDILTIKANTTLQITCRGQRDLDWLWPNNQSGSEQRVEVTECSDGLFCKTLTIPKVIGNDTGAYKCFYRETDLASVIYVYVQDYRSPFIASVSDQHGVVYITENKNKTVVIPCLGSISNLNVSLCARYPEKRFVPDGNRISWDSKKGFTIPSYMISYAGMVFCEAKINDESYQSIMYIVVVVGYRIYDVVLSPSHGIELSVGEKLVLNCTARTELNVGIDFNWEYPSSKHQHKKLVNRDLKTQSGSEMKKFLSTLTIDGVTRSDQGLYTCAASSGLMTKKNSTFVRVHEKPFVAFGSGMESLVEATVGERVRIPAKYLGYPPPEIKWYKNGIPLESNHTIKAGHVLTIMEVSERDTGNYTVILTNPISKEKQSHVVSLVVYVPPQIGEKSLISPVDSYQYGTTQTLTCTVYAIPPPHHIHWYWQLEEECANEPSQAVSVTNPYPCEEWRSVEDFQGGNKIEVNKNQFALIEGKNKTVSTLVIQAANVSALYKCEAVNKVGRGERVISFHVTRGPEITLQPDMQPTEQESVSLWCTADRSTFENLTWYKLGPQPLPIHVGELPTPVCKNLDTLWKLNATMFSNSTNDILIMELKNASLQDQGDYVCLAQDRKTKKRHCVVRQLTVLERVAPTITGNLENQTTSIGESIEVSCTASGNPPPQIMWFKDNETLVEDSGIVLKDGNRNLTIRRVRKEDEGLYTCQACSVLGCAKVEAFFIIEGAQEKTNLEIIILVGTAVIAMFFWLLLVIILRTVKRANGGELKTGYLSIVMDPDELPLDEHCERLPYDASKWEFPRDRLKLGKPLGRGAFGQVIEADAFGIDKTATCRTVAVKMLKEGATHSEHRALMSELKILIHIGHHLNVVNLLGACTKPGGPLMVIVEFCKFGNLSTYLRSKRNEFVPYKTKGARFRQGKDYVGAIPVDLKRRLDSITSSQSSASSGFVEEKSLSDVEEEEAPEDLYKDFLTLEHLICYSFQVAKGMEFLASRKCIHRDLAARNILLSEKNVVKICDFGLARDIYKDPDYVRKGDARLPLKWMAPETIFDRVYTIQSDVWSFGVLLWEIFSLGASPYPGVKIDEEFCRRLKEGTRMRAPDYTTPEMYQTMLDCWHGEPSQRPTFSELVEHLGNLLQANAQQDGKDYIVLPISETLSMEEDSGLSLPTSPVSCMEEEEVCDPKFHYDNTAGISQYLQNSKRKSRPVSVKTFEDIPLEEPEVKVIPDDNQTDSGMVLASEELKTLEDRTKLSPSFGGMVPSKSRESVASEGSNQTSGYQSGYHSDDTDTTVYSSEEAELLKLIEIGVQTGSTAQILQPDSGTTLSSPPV
Procedure: The VEGFR tyrosine kinase assays were performed at BPS Bioscience (www.bpsbioscience.com). All the synthesised compounds representing the six series were evaluated for their ability to inhibit VEGFR-2 tyrosine kinase at single dose of 10 µM.
The VEGFR tyrosine kinase activity at single dose concentration of 10 μM was carried out by BPS Bioscience (www.bpsbioscience.com). VEGFR (BPS#40301) served as the enzyme source and Poly (Glu, Tyr) sodium salt, (4:1, Glu:Tyr) (Sigma#P7244) served as the standardized substrate & Kinase-Glo Plus Luminescence kinase assay kit (Promega#V3772). The IC50 determination was carried out where quality control testing is routinely performed on each of the targets to insure compliance to acceptable standards. ^33P-ATP was purchased from Perkin Elmer and ADP-Glo^TM was purchased from Promega. All other materials were of standard laboratory grade.
The VEGFR tyrosine kinase activity was performed using Kinase-Glo Plus luminescence kinase assay kit (Promega). It measures kinase activity by quantitating the amount of ATP remaining in solution following a kinase reaction. The luminescent signal from the assay is correlated with the amount of ATP present and is inversely correlated with the amount of kinase activity. The compounds were diluted to 100 μM in 10% DMSO and […] of the dilution was added to a […] reaction so that the final concentration of DMSO is 1% in all of reactions. All of the enzymatic reactions were conducted at 30 °C for 40 min. The 50 μl reaction mixture contains […], pH 7.4, […], 0.1 mg/ml BSA, 0.2 mg/ml Poly (Glu, Tyr) substrate, 10 μM ATP and VEGFR. After the enzymatic reaction, […] of Kinase-GloPlus Luminescence kinase assay solution (Promega) was added to each reaction and incubate the plate for 5 min at room temperature. Luminescence signal was measured using a BioTek Synergy 2 microplate reader. The protein kinase assays used to determine IC50 value were performed using ADP-GloTM assay kit from Promega which measures the generation of ADP by the protein kinase. Generation of ADP by the protein kinase reaction leads to an increase in luminescence signal in the presence of ADP-GloTM assay kit. The assay was started by incubating the reaction mixture in a 96-well plate at 30 °C for 30 min. After the 30 min incubation period, the assay was terminated by the addition of […] of ADP-GloTM Reagent (Promega). The 96 well plate was shaken and then incubated for 40 min at ambient temperature. […] of Kinase detection reagent was added, the 96-well reaction plate was then read using the ADP-Glo Luminescences Protocol on a GloMax plate reader (Promega: Catalog #E7031). Blank control was set up that included all the assay components except the addition of appropriate substrate (replace with equal volume of kinase assay buffer). The corrected activity for each protein kinase target was determined by removing the blank control value.
VEGFR activity assays were performed in duplicate at each concentration. The luminescence data were analyzed using the computer software, Graphpad Prism. The difference between luminescence intensities in the absence of VEGFR (Lut) and in the presence of VEGFR (Luc) was defined as 100% activity (Lut - Luc). […] IC50 determination for inhibitor against VEGFR was estimated by generating a graph of log inhibitor vs normalized response with variable using the Prism software.

[12] = read-out: percent cell growth promotion

SMILES: O=C(Nc1ccc(Cl)cc1)Nc1ccc(Nc2nncc3ccccc23)cc1 [Compound 6b, 1–(4-Chlorophenyl)-3–(4-(phthalazin-1-ylamino)phenyl)urea]
- CC50 ([1]; KM12, 5 log dose, 48 h, read-out: LC50 (the source's name)): 45 µM
- activity at 10 µM ([1]; KM12, single dose 10 μM, read-out: percent cell growth promotion): 18.9%
- GI50 ([2]; SNB-19, 5 log dose): 3.67 µM
- IC (TGI) ([2]; SNB-19, 5 log dose): 19 µM
- CC50 ([2]; SNB-19, 5 log dose, 48 h, read-out: LC50 (the source's name)): > 100 µM
- activity at 10 µM ([2]; SNB-19, single dose 10 μM, read-out: percent cell growth promotion): 33%
- GI50 [3]: 0.82 µM
- CC50 ([3]; 5 log dose, 48 h, read-out: LC50 (the source's name)): 53.2 µM
- IC (TGI) ([3]; read-out: TGI): 14.6 µM
- activity at 10 µM [3, 12]: 33.6%
- GI50 ([4]; SK-MEL-5): 2.31 µM
- IC (TGI) ([4]; SK-MEL-5, read-out: TGI): 6.82 µM
- activity at 10 µM ([4]; SK-MEL-5, read-out: percent cell growth promotion): 7.12%
- CC50 ([4]; SK-MEL-5, 5 log dose, 48 h, read-out: LC50 (the source's name)): 24.7 µM
- GI50 ([5]; OVCAR-3, 5 log dose): 2.57 µM
- IC (TGI) ([5]; OVCAR-3, 5 log dose): 10.3 µM
- CC50 ([5]; OVCAR-3, 5 log dose, 48 h, read-out: LC50 (the source's name)): 70 µM
- activity at 10 µM ([5]; OVCAR-3, single dose 10 μM, read-out: percent cell growth promotion): 17.6%
- GI50 ([6]; OVCAR-8, 5 log dose): 3.12 µM
- IC (TGI) ([6]; OVCAR-8, 5 log dose): 12.4 µM
- CC50 ([6]; OVCAR-8, 5 log dose, 48 h, read-out: LC50 (the source's name)): > 100 µM
- activity at 10 µM ([6]; OVCAR-8, single dose 10 μM, read-out: percent cell growth promotion): 18.2%
- GI50 ([7]; RXF 393, 5 log dose): 4.28 µM
- IC (TGI) ([7]; RXF 393, 5 log dose): 21.4 µM
- CC50 ([7]; RXF 393, 5 log dose, 48 h, read-out: LC50 (the source's name)): > 100 µM
- activity at 10 µM ([7]; RXF 393, single dose 10 μM, read-out: percent cell growth promotion): 65.7%
- GI50 ([8]; Homo sapiens, TK-10, 5 log dose): 5.03 µM
- CC50 ([8]; Homo sapiens, TK-10, 5 log dose, 48 h, read-out: LC50 (the source's name)): > 100 µM
- activity at 10 µM ([8]; Homo sapiens, TK-10, single dose 10 μM, read-out: percent cell growth promotion): 32%
- TGI ([8]; TK-10, 5 log dose): 24.4 µM
- GI50 ([9]; PC-3, 5 log dose): 2.32 µM
- IC (TGI) ([9]; PC-3, 5 log dose): 11 µM
- CC50 ([9]; PC-3, 5 log dose, 48 h, read-out: LC50 (the source's name)): 55.4 µM
- activity at 10 µM ([9]; PC-3, single dose 10 μM, read-out: percent cell growth promotion): 1.46%
- GI50 [10]: 1.03 µM
- IC (TGI) ([10]; read-out: TGI): 5.35 µM
- activity at 10 µM [10, 12]: -6.32%
- CC50 ([10]; T-47D, 5 log dose, 48 h, read-out: LC50 (the source's name)): 79.3 µM
- inhibition at 10 µM [11]: 20%
